The source made the active and inactive calls.
Assays:
[1] = IGROV1 cell killing – plate reader, dry powder samples, PAX8 inhibitor project, dose response (AID 743043); type: functional, cell-based; settings: IGROV-1
Paired box protein Pax-8 = Paired box protein Pax-8 (Homo sapiens, UniProt Q06710); experiment: PAX8 transcriptional activity inhibition in RMG-I – RMG-I cells, luciferase, cherry-pick, dose response (AID 687027); type: functional, cell-based;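 note: luciferase reporter driven by Pax8 target thyroperoxidase promoter measured by SteadyGlo luminescence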
[2] = A2780 cell killing – plate reader, dry powder samples, cytotoxicity control, dose response (AID 743046); type: functional, cell-based
[3] = OVCAR-3 cell viability loss – plate reader, dry powder samples, PAX8 inhibitor project, dose response (AID 743044); type: functional, cell-based
[4] = OVCAR8 cell viability loss – plate reader, dry powder samples, PAX8 project, dose response (AID 743197); type: functional, cell-based; settings: OVCAR-8
Cytochrome P450 3A4 = Cytochrome P450 3A4 (Homo sapiens, UniProt P08684); settings: Potency;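 note: confirmatory qHTS run detecting inhibitors and substrates of CYP3A4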
[5] = general cell-killing toxicity readout – plate reader, dry powder samples, cytotoxicity control for PAX8 inhibitor project, dose response (AID 743021); type: functional, cell-based
Prothrombin = Prothrombin (Homo sapiens, UniProt P00734); experiment: Thrombin 1536 HTS Dose Response Confirmation. [Related pubchem assays: 1046 (Thrombin 1536 HTS; hits were confirmed in this assay)]; type: functional
cells = type: functional, cell-based
[6] = target: T1, Nuclear receptor subfamily 0 group B member 1 (Homo sapiens, UniProt P51843); type: functional, cell-based;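 note: HEK293T cells transfected with SF-1 and DAX-1 plus StAR promoter luciferase reporter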
T1 sequence (P51843 whole entry): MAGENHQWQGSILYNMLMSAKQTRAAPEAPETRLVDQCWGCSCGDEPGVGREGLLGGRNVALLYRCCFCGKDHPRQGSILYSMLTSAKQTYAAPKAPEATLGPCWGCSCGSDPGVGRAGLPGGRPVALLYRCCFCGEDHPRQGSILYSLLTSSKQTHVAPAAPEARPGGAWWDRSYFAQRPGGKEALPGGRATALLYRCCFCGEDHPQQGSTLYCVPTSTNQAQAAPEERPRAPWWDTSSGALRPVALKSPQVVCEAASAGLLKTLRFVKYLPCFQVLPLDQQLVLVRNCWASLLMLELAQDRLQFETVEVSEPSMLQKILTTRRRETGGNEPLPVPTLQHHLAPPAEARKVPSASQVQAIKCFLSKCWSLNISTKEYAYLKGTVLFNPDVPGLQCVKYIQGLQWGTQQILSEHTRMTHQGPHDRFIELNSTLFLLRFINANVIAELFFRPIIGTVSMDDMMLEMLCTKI

[7] = P. falciparum Dd2 growth inhibitors, dose response, SYBR Green, cherry-picked samples (AID 1159567); type: functional, cell-based
[8] = toxicity to human hepatoma HepG2 cells – cell-based, cherry-picked samples, cytotoxicity control, dose response (AID 1159577); type: functional
Mu-type opioid receptor = Mu-type opioid receptor (Homo sapiens, UniProt P35372); type: functional, cell-based;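 note: U2OS cells with beta-arrestin recruitment to OPRM1 by beta-gal complementation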
[9] = target: 5-hydroxytryptamine receptor 2A (Mus musculus, UniProt P35363); type: functional, cell-based;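 note: CHO-K1 cells with tagged receptor and beta-arrestin; agonist potency measured as compound-induced activation of the receptor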
Estrogen receptor beta [10] = target: T2, Estrogen receptor beta (Homo sapiens, UniProt Q92731); experiment: blockers of SRC-3 recruitment to ERβ – biochemical, ELISA, streptavidin-HRP readout, orthogonal assay, confirmation (AID 1060)
Estrogen receptor beta [11] = target: T2, Estrogen receptor beta
[12] = target: T3, Acyl-homoserine lactone acylase PvdQ (Pseudomonas aeruginosa (strain LESB58), UniProt Q9I194); experiment: PvdQ acylase enzyme activity blockers – biochemical, fluorescence, plate reader and imaging, cherry-picks, dose response (AID 493231)
T3 sequence (Q9I194 whole entry): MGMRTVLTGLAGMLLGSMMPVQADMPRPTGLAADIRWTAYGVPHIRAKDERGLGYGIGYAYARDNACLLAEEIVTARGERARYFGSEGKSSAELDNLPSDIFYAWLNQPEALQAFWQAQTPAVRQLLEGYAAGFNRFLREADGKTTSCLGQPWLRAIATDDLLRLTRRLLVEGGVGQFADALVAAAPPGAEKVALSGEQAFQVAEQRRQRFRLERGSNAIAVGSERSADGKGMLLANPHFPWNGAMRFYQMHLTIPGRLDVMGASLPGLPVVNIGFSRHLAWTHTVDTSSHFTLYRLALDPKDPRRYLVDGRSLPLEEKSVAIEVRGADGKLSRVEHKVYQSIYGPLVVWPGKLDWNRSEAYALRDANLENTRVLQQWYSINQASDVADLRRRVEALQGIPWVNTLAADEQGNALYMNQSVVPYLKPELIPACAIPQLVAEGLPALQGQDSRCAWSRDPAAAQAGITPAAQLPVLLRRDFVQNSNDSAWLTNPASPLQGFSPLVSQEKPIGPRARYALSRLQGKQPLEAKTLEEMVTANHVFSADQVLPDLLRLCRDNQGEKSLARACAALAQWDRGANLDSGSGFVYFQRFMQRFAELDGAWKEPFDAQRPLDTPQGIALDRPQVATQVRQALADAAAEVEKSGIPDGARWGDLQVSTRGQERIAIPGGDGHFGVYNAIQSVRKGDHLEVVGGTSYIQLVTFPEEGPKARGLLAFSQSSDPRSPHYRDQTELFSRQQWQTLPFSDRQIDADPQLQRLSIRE

[13] = target: Dual specificity tyrosine-phosphorylation-regulated kinase 1A (Rattus norvegicus, UniProt Q63470); type: biochemical, Homo sapiens
Vero [14] = experiment: mammalian cell viability reduction – secondary assay, cytotoxicity control for West Nile virus antiviral project, dose response (AID 1650); type: functional; settings: Chlorocebus sabaeus
[15] = non-specific 3'UTR reporter inhibition in Clone20-Shn3RL – cell-based, Renilla luciferase, cherry-picked, counter-screen for Shn3 inhibitor project, dose response (AID 624133); type: functional
Vero [16] = experiment: cells; type: functional; settings: Chlorocebus sabaeus
[17] = reduction of Shn3 3'UTR-driven luciferase in osteoblasts – cell-based, Clone20 osteoblasts, firefly luciferase, cherry-picked, dose response (AID 624132); type: functional;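 note: firefly luciferase luminescence from reporter carrying the Shn3 3'UTR in osteoblasts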
Large T antigen = Large T antigen (Simian virus 40, UniProt P03070); type: functional, Betapolyomavirus macacae;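 note: Confirmatory-stage PubChem screen for compounds that inhibit SV40 T antigen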
[18] = target: T4, Histone-lysine N-methyltransferase NSD2 (Homo sapiens, UniProt O96028); type: biochemical
T4 sequence (O96028 whole entry): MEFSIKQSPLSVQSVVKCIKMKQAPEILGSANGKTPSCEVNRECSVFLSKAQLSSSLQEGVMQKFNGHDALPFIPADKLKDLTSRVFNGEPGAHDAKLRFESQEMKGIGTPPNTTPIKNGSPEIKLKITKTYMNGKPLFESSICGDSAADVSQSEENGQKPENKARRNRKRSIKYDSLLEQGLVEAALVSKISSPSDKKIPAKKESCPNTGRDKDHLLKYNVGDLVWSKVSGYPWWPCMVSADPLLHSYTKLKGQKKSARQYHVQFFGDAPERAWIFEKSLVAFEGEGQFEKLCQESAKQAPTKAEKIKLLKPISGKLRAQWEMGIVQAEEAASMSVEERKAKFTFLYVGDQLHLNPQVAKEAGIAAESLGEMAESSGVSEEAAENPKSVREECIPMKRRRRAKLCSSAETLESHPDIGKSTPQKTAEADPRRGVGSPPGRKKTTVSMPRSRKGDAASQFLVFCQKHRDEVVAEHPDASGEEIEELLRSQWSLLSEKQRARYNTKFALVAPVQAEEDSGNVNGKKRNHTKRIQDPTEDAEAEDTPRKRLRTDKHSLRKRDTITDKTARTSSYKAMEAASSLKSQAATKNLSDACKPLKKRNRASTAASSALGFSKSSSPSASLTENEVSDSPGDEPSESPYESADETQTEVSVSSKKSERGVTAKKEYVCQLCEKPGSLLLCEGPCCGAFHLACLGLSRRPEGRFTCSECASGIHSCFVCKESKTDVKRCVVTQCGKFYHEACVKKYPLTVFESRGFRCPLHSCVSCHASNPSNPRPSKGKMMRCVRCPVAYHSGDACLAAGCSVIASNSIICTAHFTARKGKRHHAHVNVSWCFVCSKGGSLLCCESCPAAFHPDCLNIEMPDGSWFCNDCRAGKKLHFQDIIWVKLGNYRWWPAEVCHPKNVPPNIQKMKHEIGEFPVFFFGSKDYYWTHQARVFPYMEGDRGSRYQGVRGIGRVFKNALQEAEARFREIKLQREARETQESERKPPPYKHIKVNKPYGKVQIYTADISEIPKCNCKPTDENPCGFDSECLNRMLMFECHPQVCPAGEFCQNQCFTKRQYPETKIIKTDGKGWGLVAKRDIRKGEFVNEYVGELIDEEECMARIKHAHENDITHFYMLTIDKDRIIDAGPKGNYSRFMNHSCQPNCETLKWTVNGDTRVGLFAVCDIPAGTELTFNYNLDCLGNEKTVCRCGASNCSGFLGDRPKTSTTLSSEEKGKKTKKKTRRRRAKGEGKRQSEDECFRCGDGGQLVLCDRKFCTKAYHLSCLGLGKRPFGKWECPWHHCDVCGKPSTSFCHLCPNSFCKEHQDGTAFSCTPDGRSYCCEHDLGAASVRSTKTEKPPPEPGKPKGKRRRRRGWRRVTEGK

[19] = target: Induced myeloid leukemia cell differentiation protein Mcl-1 (Homo sapiens, UniProt Q07820); type: functional
[20] = Trypanosoma cruzi growth suppression in host cells – NIH3T3 host cells, beta-gal luminescence, confirmation (AID 2044); type: functional, cell-based;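 note: intracellular parasites grown in NIH/3T3 mouse fibroblasts as host cells; luminescent beta-galactosidase reporter signal from transgenic T. cruzi replicating inside host cells; inhibitors lower the luminescence signal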
[21] = NIH3T3 cell viability loss – ATP luminescence, mouse fibroblasts, counter-screen, dose response (AID 2010); type: functional, cell-based;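 note: cells exposed to compound for about 90 hours before reading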
Fatty acid synthase = Fatty acid synthase (Homo sapiens, UniProt P49327); experiment: inhibition of human FAS-TE enzyme activity – biochemical, kinetic fluorescence intensity, dose response (AID 624326); type: functional;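 note: rate of fluorescence rise from hydrolysis of a fluorogenic O-methyl fluorescein ester substrate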
Fatty acid synthase, sequence (P49327 whole entry): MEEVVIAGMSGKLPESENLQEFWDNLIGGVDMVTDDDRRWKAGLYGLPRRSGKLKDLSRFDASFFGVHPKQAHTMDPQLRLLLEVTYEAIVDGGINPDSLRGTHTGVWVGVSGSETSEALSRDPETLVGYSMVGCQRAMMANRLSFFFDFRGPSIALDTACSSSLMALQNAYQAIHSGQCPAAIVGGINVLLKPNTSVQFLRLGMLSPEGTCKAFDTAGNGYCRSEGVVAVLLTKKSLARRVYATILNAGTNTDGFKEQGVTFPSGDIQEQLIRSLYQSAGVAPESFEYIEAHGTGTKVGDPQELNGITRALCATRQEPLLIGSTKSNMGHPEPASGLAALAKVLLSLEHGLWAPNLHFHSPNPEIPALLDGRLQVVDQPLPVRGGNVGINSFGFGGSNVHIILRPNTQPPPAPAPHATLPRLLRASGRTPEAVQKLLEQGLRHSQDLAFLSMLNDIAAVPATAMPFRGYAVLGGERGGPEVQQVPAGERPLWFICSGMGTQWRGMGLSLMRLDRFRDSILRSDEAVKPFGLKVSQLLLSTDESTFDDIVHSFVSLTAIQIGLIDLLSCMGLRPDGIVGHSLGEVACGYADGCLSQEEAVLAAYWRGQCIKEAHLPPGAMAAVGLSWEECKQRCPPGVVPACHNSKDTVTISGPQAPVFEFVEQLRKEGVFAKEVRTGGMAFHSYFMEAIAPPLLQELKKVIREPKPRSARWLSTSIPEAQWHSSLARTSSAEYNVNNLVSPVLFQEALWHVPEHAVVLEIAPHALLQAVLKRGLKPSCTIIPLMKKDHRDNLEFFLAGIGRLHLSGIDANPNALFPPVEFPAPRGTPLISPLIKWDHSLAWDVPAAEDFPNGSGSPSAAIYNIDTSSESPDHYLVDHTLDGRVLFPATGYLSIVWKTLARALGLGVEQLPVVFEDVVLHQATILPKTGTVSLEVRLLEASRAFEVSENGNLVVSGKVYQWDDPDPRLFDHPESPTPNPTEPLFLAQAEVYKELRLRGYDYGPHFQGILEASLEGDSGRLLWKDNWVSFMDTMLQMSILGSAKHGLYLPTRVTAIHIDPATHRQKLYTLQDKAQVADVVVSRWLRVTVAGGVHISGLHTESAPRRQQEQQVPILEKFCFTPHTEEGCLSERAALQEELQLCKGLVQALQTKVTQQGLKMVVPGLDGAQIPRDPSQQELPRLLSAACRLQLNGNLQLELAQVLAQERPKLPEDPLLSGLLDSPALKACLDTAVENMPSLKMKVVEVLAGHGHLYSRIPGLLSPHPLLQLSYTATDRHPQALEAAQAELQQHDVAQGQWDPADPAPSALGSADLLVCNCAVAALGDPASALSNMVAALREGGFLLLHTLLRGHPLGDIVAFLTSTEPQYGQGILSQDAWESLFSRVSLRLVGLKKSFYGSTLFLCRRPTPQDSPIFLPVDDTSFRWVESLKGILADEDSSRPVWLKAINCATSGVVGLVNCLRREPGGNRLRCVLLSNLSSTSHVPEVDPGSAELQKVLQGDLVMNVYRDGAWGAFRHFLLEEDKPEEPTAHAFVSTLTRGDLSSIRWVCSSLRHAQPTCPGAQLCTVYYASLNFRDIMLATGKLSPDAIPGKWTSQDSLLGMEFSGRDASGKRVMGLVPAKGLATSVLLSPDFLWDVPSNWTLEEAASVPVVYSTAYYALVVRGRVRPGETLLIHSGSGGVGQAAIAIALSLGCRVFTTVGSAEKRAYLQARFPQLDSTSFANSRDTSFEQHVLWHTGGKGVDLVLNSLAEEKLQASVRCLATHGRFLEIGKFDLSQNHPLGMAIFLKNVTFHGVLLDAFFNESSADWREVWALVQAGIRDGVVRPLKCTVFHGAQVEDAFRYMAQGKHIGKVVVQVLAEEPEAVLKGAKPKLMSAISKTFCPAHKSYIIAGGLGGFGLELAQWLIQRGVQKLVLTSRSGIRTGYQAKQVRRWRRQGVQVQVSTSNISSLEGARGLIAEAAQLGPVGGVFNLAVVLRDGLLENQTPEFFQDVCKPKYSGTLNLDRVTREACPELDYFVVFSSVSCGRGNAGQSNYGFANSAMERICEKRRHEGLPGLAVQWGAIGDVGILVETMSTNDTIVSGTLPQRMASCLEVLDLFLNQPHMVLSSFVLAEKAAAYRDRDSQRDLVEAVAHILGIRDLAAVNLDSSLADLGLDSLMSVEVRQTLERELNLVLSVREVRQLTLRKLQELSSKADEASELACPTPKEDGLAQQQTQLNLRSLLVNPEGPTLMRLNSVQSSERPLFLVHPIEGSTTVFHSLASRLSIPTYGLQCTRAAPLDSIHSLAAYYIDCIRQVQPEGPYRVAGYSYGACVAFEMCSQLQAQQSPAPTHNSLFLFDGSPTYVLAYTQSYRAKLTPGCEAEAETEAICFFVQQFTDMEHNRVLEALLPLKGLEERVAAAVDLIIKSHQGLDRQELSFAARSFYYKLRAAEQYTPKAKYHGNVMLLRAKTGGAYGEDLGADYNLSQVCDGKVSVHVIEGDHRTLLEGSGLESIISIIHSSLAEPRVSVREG

Mu-type opioid receptor, sequence (P35372 whole entry): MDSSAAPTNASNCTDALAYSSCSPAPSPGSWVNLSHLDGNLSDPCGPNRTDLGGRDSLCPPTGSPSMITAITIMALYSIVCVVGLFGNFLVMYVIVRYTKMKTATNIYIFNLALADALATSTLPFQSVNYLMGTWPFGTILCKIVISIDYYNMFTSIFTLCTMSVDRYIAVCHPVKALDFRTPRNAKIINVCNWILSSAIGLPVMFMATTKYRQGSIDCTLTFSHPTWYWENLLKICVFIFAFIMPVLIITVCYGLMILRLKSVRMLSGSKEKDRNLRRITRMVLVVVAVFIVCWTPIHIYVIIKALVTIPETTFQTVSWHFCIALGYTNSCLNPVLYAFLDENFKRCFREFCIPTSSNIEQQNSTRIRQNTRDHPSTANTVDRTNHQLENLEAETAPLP
5-hydroxytryptamine receptor 2A, sequence (P35363 whole entry): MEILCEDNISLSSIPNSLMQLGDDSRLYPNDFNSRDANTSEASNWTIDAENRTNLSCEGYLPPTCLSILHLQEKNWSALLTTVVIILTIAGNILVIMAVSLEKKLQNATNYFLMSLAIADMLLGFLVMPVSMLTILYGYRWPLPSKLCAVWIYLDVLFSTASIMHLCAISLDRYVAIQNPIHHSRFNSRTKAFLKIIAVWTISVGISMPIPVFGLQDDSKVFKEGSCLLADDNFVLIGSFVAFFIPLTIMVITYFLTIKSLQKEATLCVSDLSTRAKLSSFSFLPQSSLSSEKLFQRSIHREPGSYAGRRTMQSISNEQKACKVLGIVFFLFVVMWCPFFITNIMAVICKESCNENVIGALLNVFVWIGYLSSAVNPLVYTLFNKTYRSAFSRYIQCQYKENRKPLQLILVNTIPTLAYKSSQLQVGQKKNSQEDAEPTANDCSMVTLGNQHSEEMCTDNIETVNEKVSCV
Paired box protein Pax-8, sequence (Q06710 whole entry): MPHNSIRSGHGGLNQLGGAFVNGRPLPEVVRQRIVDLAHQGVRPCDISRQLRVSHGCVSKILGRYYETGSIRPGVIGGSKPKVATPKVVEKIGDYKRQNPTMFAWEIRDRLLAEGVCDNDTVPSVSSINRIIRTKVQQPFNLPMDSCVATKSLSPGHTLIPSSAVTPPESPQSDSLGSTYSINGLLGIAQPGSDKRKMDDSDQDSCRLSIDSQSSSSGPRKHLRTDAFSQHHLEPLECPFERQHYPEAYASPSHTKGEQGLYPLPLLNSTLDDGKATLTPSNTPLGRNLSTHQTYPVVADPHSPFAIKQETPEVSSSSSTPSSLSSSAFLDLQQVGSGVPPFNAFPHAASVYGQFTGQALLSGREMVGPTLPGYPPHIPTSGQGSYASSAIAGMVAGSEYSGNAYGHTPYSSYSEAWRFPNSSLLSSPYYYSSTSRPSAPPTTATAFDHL
Cytochrome P450 3A4, sequence (P08684 whole entry): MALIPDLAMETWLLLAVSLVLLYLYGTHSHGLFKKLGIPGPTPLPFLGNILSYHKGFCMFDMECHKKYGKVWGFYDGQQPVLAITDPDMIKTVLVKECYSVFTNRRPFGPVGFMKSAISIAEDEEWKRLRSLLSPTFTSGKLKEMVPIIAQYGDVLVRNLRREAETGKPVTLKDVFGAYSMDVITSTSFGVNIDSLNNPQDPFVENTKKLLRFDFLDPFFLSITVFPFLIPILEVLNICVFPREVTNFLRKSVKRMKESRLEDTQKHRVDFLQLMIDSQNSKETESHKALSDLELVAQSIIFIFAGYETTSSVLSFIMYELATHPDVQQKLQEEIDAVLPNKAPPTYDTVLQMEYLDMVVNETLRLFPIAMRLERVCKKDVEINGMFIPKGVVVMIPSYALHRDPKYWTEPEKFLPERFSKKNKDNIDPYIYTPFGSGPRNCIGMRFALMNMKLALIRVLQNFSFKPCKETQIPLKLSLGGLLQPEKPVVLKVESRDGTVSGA
T2 sequence (Q92731 whole entry): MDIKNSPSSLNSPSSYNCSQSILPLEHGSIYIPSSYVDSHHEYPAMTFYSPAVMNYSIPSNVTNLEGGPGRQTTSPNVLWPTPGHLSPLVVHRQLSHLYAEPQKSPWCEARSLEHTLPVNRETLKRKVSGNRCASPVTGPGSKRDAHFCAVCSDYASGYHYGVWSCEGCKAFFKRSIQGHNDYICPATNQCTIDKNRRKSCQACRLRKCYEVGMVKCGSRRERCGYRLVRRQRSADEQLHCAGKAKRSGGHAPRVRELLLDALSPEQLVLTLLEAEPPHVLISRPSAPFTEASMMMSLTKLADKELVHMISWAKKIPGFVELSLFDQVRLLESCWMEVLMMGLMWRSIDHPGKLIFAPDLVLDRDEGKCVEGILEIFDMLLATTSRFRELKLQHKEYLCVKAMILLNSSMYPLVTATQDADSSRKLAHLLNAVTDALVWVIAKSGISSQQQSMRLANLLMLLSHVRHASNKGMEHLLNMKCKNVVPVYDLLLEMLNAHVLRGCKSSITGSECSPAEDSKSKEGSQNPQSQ

## COc1ccc(S(=O)(=O)Nc2ccc3c(c2)C(=O)N([C@H](C)CO)C[C@H](C)[C@@H](CN(C)S(=O)(=O)c2ccc(F)cc2)OCCCC[C@H](C)O3)cc1
[1]
  AC50: 37.1 µM (active)
Paired box protein Pax-8
  AC50: 3.96 µM (active)
[2]
  AC50: 34.7 µM (active)
[3]
  AC50: 12.5 µM (active)
[4]
  AC50: 22.9 µM (active)

## Cc1cc(-c2ccc(/N=N/c3cc(S(=O)(=O)O)c4ccccc4c3N)c(C)c2)ccc1/N=N/c1cc(S(=O)(=O)O)c2ccccc2c1N
Cytochrome P450 3A4
  AC50: 25.1 µM (inconclusive)

## CC(C)=CCC/C(C)=C/CN1C(=O)N(c2ccc(F)cc2)[C@H]2C[C@@H](c3ccccc3)[C@@H](C)[C@@H](C(=O)N3CCOCC3)C[C@H]21
[5]
  AC50: 42 µM (active)
Paired box protein Pax-8
  AC50: 2.66 µM (active)

## CC(Nc1nc(O)c2c(ncn2Cc2ccccc2)n1)C(=O)O (stereo not given)
Prothrombin
  IC50: > 50 µM (not active)

## COc1cccc(/C=C/C(=O)NNC(=O)c2ccccc2)c1OC
cells
  IC50: > 67.6 µM (inactive)
[6]
  IC50: > 67.6 µM (inactive)

## COc1ccc(C#Cc2ccc([C@@H]3[C@H](CO)N4CCCCN(Cc5ccccc5F)C[C@@H]34)cc2)cc1
[7]
  AC50: 0.756 µM (active)
[8]
  AC50: 9.38 µM (active)

## OC[C@H]1O[C@H](c2nc(-c3nc(-c4cccs4)no3)cs2)C[C@@H]1O
cells
  IC50: > 67.5 µM (inactive)
[6]
  IC50: > 67.5 µM (inactive)

## C[C@@H]1CCCCO[C@H](CN(C)S(=O)(=O)c2ccc(Cl)cc2)[C@@H](C)CN([C@@H](C)CO)C(=O)c2cc(NS(=O)(=O)c3ccc(F)cc3)ccc2O1
Paired box protein Pax-8
  AC50: 7.67 µM (active)
[2]
  AC50: 11.5 µM (active)
[3]
  AC50: 39 µM (active)
[4]
  AC50: 62.8 µM (active)

## Nc1n[nH]c(N2CCN(Cc3ccccc3)CC2)n1
Mu-type opioid receptor
  EC50: 92.5 µM (inactive)
[9]
  EC50: 5.59 µM (active)

## Clc1ccccc1CN1CCN(c2ccccc2)CC1
Mu-type opioid receptor
  EC50: 92.5 µM (inactive)
[9]
  EC50: 0.553 µM (active)

## Nc1nc(CN2CCN(c3ccccn3)CC2)nc(Nc2ccc(Cl)cc2)n1
Mu-type opioid receptor
  EC50: 92.5 µM (inactive)
[9]
  EC50: 1.51 µM (active)

## COc1ccc(S(=O)(=O)N2CCOCC2)cc1NC(=O)COC(=O)c1ccc(C)s1
Prothrombin
  IC50: 0.408 µM (active)

## O=C(c1ccc(C[S+]([O-])c2ccccc2Cl)o1)N1CCN(C2CCCCC2)CC1 (stereo not given)
cells
  IC50: > 67.5 µM (inactive)
[6]
  IC50: > 67.5 µM (inactive)

## Cc1cc2n(c1)CCn1c(C)ccc1-2
Estrogen receptor beta [10]
  IC50: 3.06 µM (not active)
Estrogen receptor beta [11]
  IC50: 3.91 µM (active)

## COC(=O)NC(c1cccc(C)c1)C(C(C)=O)C(=O)OC (stereo not given)
Cytochrome P450 3A4
  AC50: 7.94 µM (inconclusive)

## O=C(Nc1cc(F)ccc1F)N1CCCCN2[C@@H](CO)[C@@H](c3ccc(-c4ccccc4)cc3)[C@@H]2C1
[7]
  AC50: 2.56 µM (active)
[8]
  AC50: 9.99 µM (active)

## COc1ccc(N(C(=O)c2ccco2)S(=O)(=O)c2cccc([N+](=O)[O-])c2)cc1
Prothrombin
  IC50: 2.18 µM (active)

## c1cnc2ccc(-c3ccc4ncccc4c3)cc2c1
[12]
  AC50: 10.7 µM (active)
[13]
  AC50: 0.189 µM (active)

## Cc1ccc(Cn2ccc(NC(=O)c3nn(C)cc3[N+](=O)[O-])n2)cc1
Vero [14]
  CC50: 11.6 µM (active)
[15]
  AC50: 27.3 µM (active)
Vero [16]
  CC50: 13.8 µM (active)
[17]
  AC50: 4.09 µM (active)

## Cc1ccc(C2=NC(=O)/C(=C/c3cc(O)c(O)c(Br)c3)S2)cc1
Large T antigen
  IC50: 4.91 µM (active)
[18]
  AC50: 3.45 µM (active)
[19]
  IC50: 0.767 µM (active)

## COc1ccc(/C=C2\CN(Cc3ccccc3)C/C(=C\c3ccc(OC)cc3OC)C2=O)c(OC)c1
[5]
  AC50: 42.3 µM (active)
Paired box protein Pax-8
  AC50: 10.4 µM (active)
[20]
  EC50: 1.83 µM (active)
[21]
  EC50: 9.01 µM (active)

## O=S(=O)(c1ccc(F)cc1)N1C[C@@H]2N[C@H](C1)[C@@H]2c1ccc(-c2ccc(F)cc2)cc1
[7]
  AC50: 7.37 µM (active)
[8]
  AC50: 11 µM (active)

## O=C(CC(c1ccccc1)c1ccccc1)NCC(O)c1ccc([N+](=O)[O-])cc1 (stereo not given)
Fatty acid synthase
  IC50: 13.5 µM (active)
